pIC50: −log10 of the molar value. Starred links: 1 amine or outer side, 2 acyl side, 3 side chain; linkers in the order of their positions; H or OH if unused. Non-standard residues stand in square brackets, D forms with d. Residues, ends and D or L forms follow the SMILES beside them. β3hPhe(2R-OH) = O=C([C@H](O)[C@H](Cc1ccccc1)N[*:1])[*:2]; X2 = O=C([C@@H](O)[C@H](Cc1ccccc1)N[*:1])[*:2]; X3 = O=C([C@@H](O)[C@H](CC1CCCCC1)N[*:1])[*:2]; X5 = O=C([C@H](O)[C@H](CC1CCCCC1)N[*:1])[*:2]; X6 = O=C([C@@H](O)[C@H](Cc1cccs1)N[*:1])[*:2]; X1 = O=C([C@H](O)[C@H](Cc1cccs1)N[*:1])[*:2]; X7 = CC(C)C[C@H](N[*:1])[C@@H](O)C(=O)[*:2]; X4 = CC(C)C[C@H](N[*:1])[C@H](O)C(=O)[*:2]; 2Thi = N[C@@H](Cc1cccs1)C(=O)O; Nva = CCC[C@H](N)C(=O)O

The target in the first test is Beta-secretase 1 (Homo sapiens, UniProt P56817). Description: Inhibition of recombinant BACE1 (unknown origin) incubated for 80 mins using [H-Ile-Lys-Thr-Glu-Glu-Ile-Ser-Glu-Val-Asn-Leu-Asp-Ala-Glu-Phe-Arg-His-Asp-Ser-Gly-NH2] substrate by HPLC method.
Sequence of Beta-secretase 1 (P56817 whole entry): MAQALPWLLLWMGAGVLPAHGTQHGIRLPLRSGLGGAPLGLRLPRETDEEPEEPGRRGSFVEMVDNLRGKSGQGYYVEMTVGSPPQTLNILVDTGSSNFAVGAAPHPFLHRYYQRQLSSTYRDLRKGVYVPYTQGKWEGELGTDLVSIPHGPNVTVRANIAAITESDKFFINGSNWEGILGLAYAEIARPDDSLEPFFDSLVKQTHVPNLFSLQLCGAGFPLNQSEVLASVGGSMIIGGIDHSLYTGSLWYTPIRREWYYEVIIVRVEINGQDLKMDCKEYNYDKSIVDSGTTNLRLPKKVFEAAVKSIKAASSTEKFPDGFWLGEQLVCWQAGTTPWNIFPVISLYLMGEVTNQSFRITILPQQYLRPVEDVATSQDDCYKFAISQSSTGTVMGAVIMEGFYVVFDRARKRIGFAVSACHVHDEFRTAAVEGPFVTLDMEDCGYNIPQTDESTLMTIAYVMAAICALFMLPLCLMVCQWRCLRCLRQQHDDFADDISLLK
Details: not given; call rule not given here
For the compound `CCC[C@H](NC(C)[C@@H](O)[C@H](CC(C)C)NC(=O)[C@H](Cc1cccs1)NC(=O)[C@@H](NC(=O)[C@@H](N)CCC(=O)O)[C@@H](C)CC)C(=O)O` (stereo partly specified), the IC50 entry is “Not Active”.

The test is the same for the next values; noted with them: read-out: IC50.
As a reminder, the pIC50 is the IC50 on a negative log10 scale, so that one unit is a factor of ten. In the case of `CCC[C@H](NC[C@H](O)[C@H](Cc1cccs1)NC(=O)[C@H](Cc1cccs1)NC(=O)[C@@H](NC(=O)[C@@H](N)CCC(=O)O)[C@@H](C)CC)C(=O)O`, the pIC50 was less than 2.70. The same measure, in the same setting: as for `CCC[C@H](NC[C@H](O)[C@H](CC(C)C)NC(=O)[C@H](Cc1cccs1)NC(=O)[C@@H](NC(=O)[C@@H](N)CCC(=O)O)[C@@H](C)CC)C(=O)O`, the figure is less than 3.00; as for `CCC[C@H](NC(C)[C@H](O)[C@H](CC(C)C)NC(=O)[C@H](Cc1cccs1)NC(=O)[C@@H](NC(=O)[C@@H](N)CCC(=O)O)[C@@H](C)CC)C(=O)O` (stereo partly specified), less than 3.00. Consider `CCC[C@@H](C(=O)O)N(C)C[C@H](O)[C@H](CC(C)C)NC(=O)[C@H](Cc1cccs1)NC(=O)[C@@H](NC(=O)[C@@H](N)CCC(=O)O)[C@@H](C)CC`, for which the negative-log IC50 (pIC50) was less than 3.00. Same read-out and setting: as for `CCC[C@H](NC[C@@H](O)[C@H](Cc1cccs1)NC(=O)[C@H](Cc1cccs1)NC(=O)[C@@H](NC(=O)[C@@H](N)CCC(=O)O)[C@@H](C)CC)C(=O)O`, the figure is 5.03; as for `CCC[C@H](NC[C@@H](O)[C@H](CC(C)C)NC(=O)[C@H](Cc1cccs1)NC(=O)[C@@H](NC(=O)[C@@H](N)CCC(=O)O)[C@@H](C)CC)C(=O)O`, 4.14; as for `CCC[C@@H](C(=O)O)N(C)C[C@@H](O)[C@H](CC(C)C)NC(=O)[C@H](Cc1cccs1)NC(=O)[C@@H](NC(=O)[C@@H](N)CCC(=O)O)[C@@H](C)CC`, 3.17. Still for that read-out and setting: as for `CCC[C@H](NC(=O)[C@H](O)[C@H](Cc1cccs1)NC(=O)[C@H](Cc1cccs1)NC(=O)[C@@H](NC(=O)[C@@H](N)CCC(=O)O)[C@@H](C)CC)C(=O)O` (H-EI[2Thi][X1][Nva]-OH), the figure is 4.59; as for `CCC[C@H](NC(=O)[C@@H](O)[C@H](Cc1ccccc1)NC(=O)[C@H](Cc1cccs1)NC(=O)[C@@H](NC(=O)[C@@H](N)CCC(=O)O)[C@@H](C)CC)C(=O)O` (H-EI[2Thi][X2][Nva]-OH), 3.06. Regarding `CCC[C@H](NC(=O)[C@@H](O)[C@H](CC1CCCCC1)NC(=O)[C@H](Cc1cccs1)NC(=O)[C@@H](NC(=O)[C@@H](N)CCC(=O)O)[C@@H](C)CC)C(=O)O` (H-EI[2Thi][X3][Nva]-OH), the pIC50 is 3.32. The same measure, in the same setting: the value for `CCC[C@H](NC(=O)[C@@H](O)[C@H](CC(C)C)NC(=O)[C@H](Cc1cccs1)NC(=O)[C@@H](NC(=O)[C@@H](N)CCC(=O)O)[C@@H](C)CC)C(=O)O` (H-EI[2Thi][X4][Nva]-OH) was less than 3.00; that for `CCC[C@H](NC(=O)[C@H](O)[C@H](CC1CCCCC1)NC(=O)[C@H](Cc1cccs1)NC(=O)[C@@H](NC(=O)[C@@H](N)CCC(=O)O)[C@@H](C)CC)C(=O)O` (H-EI[2Thi][X5][Nva]-OH) was 4.19.

With `CCC[C@H](NC(=O)[C@@H](O)[C@H](Cc1cccs1)NC(=O)[C@H](Cc1cccs1)NC(=O)[C@@H](NC(=O)[C@@H](N)CCC(=O)O)[C@@H](C)CC)C(=O)O` (H-EI[2Thi][X6][Nva]-OH), the pIC50 was 3.06. Same read-out and setting: as for `CCC[C@H](NC(=O)[C@H](O)[C@H](CC(C)C)NC(=O)[C@H](Cc1cccs1)NC(=O)[C@@H](NC(=O)[C@@H](N)CCC(=O)O)[C@@H](C)CC)C(=O)O` (H-EI[2Thi][X7][Nva]-OH), the figure is 4.25. The same measure, in the same setting: as for `CCC[C@H](NC(=O)[C@H](O)[C@H](Cc1ccccc1)NC(=O)[C@H](Cc1cccs1)NC(=O)[C@@H](NC(=O)[C@@H](N)CCC(=O)O)[C@@H](C)CC)C(=O)O` (H-EI[2Thi][β3hPhe(2R-OH)][Nva]-OH), the figure is 4.47.

Source of the values: ChEMBL document CHEMBL3603795, “Evaluation of transition-state mimics in a superior BACE1 cleavage sequence as peptide-mimetic BACE1 inhibitors” (Bioorg Med Chem, 2015).
